# Assay results: patent US6995022B1, “Screening of xenobiotics and endogenous compounds for metabolic transformation, formation of toxic metabolites, and bioavailability” (Board of Trustees of the University of Illinois, priority 1998, dated 2006)
# What was measured:
# [1] = tested on: rat liver microsomes containing cytochromes P450 and microsomal glutathione S-transferase
# Excerpt: Alternatively, reactive metabolites may be trapped as phase II conjugates such as glutathione adducts.
# Glutathione adducts formed from reactive drugs or their activated metabolites in the ultrafiltrate may be trapped and concentrated on a trapping column and then analyzed using LC-MS or LC-MS-MS for identification of the metabolites and for the differentiation of isomeric products.
# [2] = tested on: rat liver microsomal cytochromes P450; details: for extent of metabolism by cytochromes P450 indicated by high throughput assays: microsomes
# Method: Chlorpromazine is an antidepressant-drug that undergoes extensive hepatic metabolism. […] The area under the curve for unreacted chlorpromazine is proportional to the amount of chlorpromazine consumed during the on-line metabolism experiment.
# Pentoxyresorufin (1 μg) was injected into the ultrafiltration chamber containing hepatic microsomes as described herein.
# Microsomes may be prepared from any types of cells or tissues, which are obtained from any species including humans. For the examples cited, male or female Sprague-Dawley rats (180-200 g) were obtained from Sasco Inc. (Omaha, Nebr.). Microsomes were prepared from rat liver, and protein and cytochrome P450 concentrations were determined using standard procedures (1). […] This washing step may be accelerated by using a higher flow rate, but care should be taken to avoid excessive pressure and rupture of the ultrafiltration membrane.
# The ultrafiltration chamber (FIG. 1B) was built in-house out of polyetheretherketone (PEEK) and contained a Teflon®-coated magnetic stirring bar and a Viton® O-ring, which formed a seal around the ultrafiltration membrane. […] Chromatography tubing and fittings were made from polyetheretherketone (PEEK, Upchurch Scientific, Oak Harbor, Wash.).
# NADPH and drug substrates were purchased from Sigma Chemical Company (St. Louis, Mo. All solvents were HPLC grade. Into a mobile phase consisting of 50 mM anmmonium acetate, pH 7.4, and 0.1 mM NADPH at a flow rate of 70 μL/min, chlorpromazine (3 μg) in 50 μL buffer was injected into the ultrafiltration chamber. Protonated molecules of chlorpromazine, cofactor NADPH, and the microsomal metabolic products were recorded continuously using positive ion electrospray mass spectrometry. In another experiment, 1 μg of pentoxyresorufin was injected into the ultrafiltration chamber containing hepatic microsomes as described above. […] In some experiments, NADPH was injected simultaneously with substrate instead of being added to the mobile phase.
# Typically, a wide mass range was scanned by the mass spectrometer in order to identify the major metabolites (if unknown). Once the major metabolites are known or if only the compounds injected into the first chamber need to be analyzed, selected ion monitoring mass spectrometry is used to follow the appearance of metabolites, monitor the consumption of NADPH, and/or monitor the profile of unreacted compound(s).
# The transfer line between the ultrafiltration chamber and the mass spectrometer was flushed for 1 min, then mass spectra were recorded for 2 min.
# Caco-2 cells = type: in vitro ADME; details: human, Caco-2, 118 µM
# Method: Bioavailability assays are generally carried out in one of two ways. In one type of assay, the chamber is loaded with cells (i.e., Caco-2 human intestinal epithelial cells) such that the volume of the cells is significant compared to the volume of the chamber (e.g., 1 million cells/mL), and a size exclusion experiment is carried out. (Hidalgo, et al. 1989). An aliquot of a drug mixture is injected through the chamber and the elution profile is recorded by the mass spectrometer detector. The mixture may contain a single drug or a mixture of drugs under investigation and two internal controls: The negative control compound (such as mannitol) is excluded from entering the cells; and the positive control compound (such as certain steroids) readily enters the cells. Compounds that are excluded from the cells are washed out of the ultrafiltration chamber faster and are detected first, while compounds that enter the cells are distributed into a larger volume within the chamber and require longer to elute. In this manner, quantitative bioavailability or absorption data may be determined. In another type of bioavailability assay, a monolayer of cells (i.e., Caco-2 cells) is grown on an ultrafiltration membrane, which is then mounted in the ultrafiltration chamber with the cells facing the interior of the chamber. […] Compounds that readily enter and pass through the cells are detected first. […]
# cytochrome P450 isozymes = details: cited from earlier work
SMILES,metabolites detected in high throughput metabolic screening [2],extent of metabolism by cytochromes P450 indicated by high throughput assays [2],metabolism according to the literature (cytochrome P450 isozymes),effect on cytochrome P450 isozymes according to the literature (cytochrome P450 isozymes),other results
Cc1c[nH]c2ccccc12 [3-methylindole],,,,,glutathione adducts detected [1]: observed
CCCCCOc1ccc2nc3ccc(=O)cc-3oc2c1 [Pentoxyresorufin],,,,,metabolism in control without NADPH [2]: no metabolism occurred
CC(=O)Oc1ccccc1C(=O)O [aspirin],,,,,relative elution rates aspirin/propranolol (ratio of slopes of ln [drug] vs. elution time) (Caco-2 cells): 1.6:1
CN(C)CCCN1c2ccccc2Sc2ccc(Cl)cc21 [chlorpromazine],observed,extensive metabolism,metabolized extensively,,
O=C1C[C@@H](c2ccc(O)cc2)Oc2cc(O)cc(O)c21 [naringenin],no metabolites,not,not metabolized,inhibit the action of certain cytochrome P450 isozymes,
C=C[C@H]1C[N@@]2CC[C@H]1C[C@@H]2[C@@H](O)c1ccnc2ccc(OC)cc12 [quinidine],no metabolites,not,not metabolized,inhibit the action of certain cytochrome P450 isozymes,
